We go through 29 compounds from patent US9815851B2, “Pyrrolo carboxamides as modulators of orphan nuclear receptor RAR-related orphan receptor-gamma (RORγ, NR1F3) activity and for the treatment of chronic inflammatory and autoimmune diseases” (PHENEX PHARMACEUTICALS AG, priority 2011, dated 2017).

Each structure is given as a SMILES string. Where two headings read alike, the source gives them in different places.

The target in experiment [1] is T1, RORγ ligand binding domain (LBD) (Homo sapiens, UniProt P51449).
T1 construct: made in house; host or cells: E. coli BL-21 (BL3), vector pDEST15
T1 sequence (P51449 269-508 limits assumed): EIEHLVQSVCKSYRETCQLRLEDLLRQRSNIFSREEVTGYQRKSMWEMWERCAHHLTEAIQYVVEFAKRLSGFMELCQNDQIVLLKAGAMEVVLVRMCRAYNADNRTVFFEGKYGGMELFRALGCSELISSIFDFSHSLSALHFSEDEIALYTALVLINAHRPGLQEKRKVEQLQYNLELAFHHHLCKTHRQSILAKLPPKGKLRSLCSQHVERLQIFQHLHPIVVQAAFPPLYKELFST
Kind of experiment: TR-FRET Activity Assay (ligand sensing, RORγ-LBD / coactivator peptide interaction, LANCE). In kind it is biochemical. (In general: TR-FRET usually uses a lanthanide donor and a delayed reading to cut background.)

In a further experiment the target is T2, RORγ (UniProt P51449).
T2 sequence (P51449 1-518): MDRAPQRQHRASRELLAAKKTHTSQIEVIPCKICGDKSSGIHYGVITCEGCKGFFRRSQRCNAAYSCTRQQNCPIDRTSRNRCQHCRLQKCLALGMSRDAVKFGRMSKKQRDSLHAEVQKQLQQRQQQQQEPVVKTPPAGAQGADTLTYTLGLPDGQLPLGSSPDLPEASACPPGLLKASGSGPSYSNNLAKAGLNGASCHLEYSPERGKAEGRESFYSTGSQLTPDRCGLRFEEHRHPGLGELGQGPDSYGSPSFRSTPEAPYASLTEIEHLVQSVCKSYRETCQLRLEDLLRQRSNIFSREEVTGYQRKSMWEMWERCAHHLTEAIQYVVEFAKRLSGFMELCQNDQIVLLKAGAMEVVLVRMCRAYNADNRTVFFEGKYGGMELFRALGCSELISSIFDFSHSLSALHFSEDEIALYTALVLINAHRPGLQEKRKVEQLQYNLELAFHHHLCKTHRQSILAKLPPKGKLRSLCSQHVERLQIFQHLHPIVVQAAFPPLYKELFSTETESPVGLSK
Kind of experiment: RORγ Gal4 Reporter Gene Assay in 293T cells (firefly and renilla luciferase). In kind it is cell-based, human.

[2] abbreviates: first value of the cell FRET/FF/REN, TR-FRET activity assay, read-out: pIC50 (FRET) (converted).
Where [3] appears, read: second value of the cell, Gal4 reporter gene assay in 293T cells, firefly luciferase.
Setting [4] is: third value of the cell, Gal4 reporter gene assay in 293T cells, renilla normalised luciferase.

For `Cc1c(C(=O)NC2CCOCC2)cc(-c2ccc(S(=O)(=O)NC(C)(C)C)c(C(F)(F)F)c2)n1[C@@H](C)C1CCCCC1` [17/253], the IC50 in experiment [1] (setting [2]) was 631 nM. Besides, on RORγ (setting [3]), the “pIC50 (FF)” value came out at 7.0. Besides, on RORγ (setting [4]), the “pIC50 (REN)” value is reported as 7.2.
On the same counts, the results for `Cc1c(C(=O)NC2COC2)cc(-c2cc(C(C)(C)C)cc(C(C)(C)C)c2)n1S(=O)(=O)N1CCCCC1` [Example 7, 5-(3,5-Di-tert-butylphenyl)-2-methyl-N-(oxetan-3-yl)-1-(piperidin-1-ylsulfonyl)-1H-pyrrole-3-carboxamide] are 316 nM, 6.8 and 6.9.
On the same counts, the results for `Cc1c(C(=O)NC2CCOCC2)cc(-c2ccc(S(=O)(=O)NC(C)(C)C)c(C(F)F)c2)n1CC1CCC1` [17/126] are 316 nM, 6.7 and 6.9.
On to `Cc1c(C(=O)NCC(C)(C)O)cc(-c2cc(C(C)(C)O)cc(C3(C)CC3)c2)n1CC1CCCCC1` [17/313], for which the IC50 in experiment [1] is 1000 nM. Further, at RORγ, the “pIC50 (FF)” value is reported as 6.0/6.8/6.8 and the “pIC50 (REN)” value was 6.0/6.8/6.8.
In turn, `Cc1c(C(=O)NCC2(O)CCOCC2)cc(-c2ccc(S(=O)(=O)NC(C)(C)C)c(C(C)(C)C)c2)n1CC1CCCCC1` [1/124] gave an IC50 in experiment [1] of 631 nM. At RORγ, the “pIC50 (FF)” value is 6.2/7.5/7.5 and the “pIC50 (REN)” value was 6.2/7.5/7.5.
Take `CC(C)(C)NS(=O)(=O)c1ccc(-c2cc(C(=O)NCCC(C)(C)C(=O)O)c(F)n2CC2CCCCC2)c2ccccc12` [20/9]: the IC50 in experiment [1] (setting [2]) is 1260 nM. On RORγ (setting [3]), the “pIC50 (FF)” value was found to be 7.8. Besides, the “pIC50 (REN)” value on RORγ (setting [4]) came to 7.6.
On the same counts, the results for `Cc1c(C(=O)NCC2(CO)COC2)cc(-c2cc(C(C)(C)C)c3c(c2)C2(CCO3)CC2)n1CC1CCCCC1` [17/8] are 794 nM, 7.2 and 7.2.
In the same order, the values of `Cc1c(C(=O)NCc2nc(C(=O)O)co2)cc(-c2cc(C(C)(C)C)c3c(c2)C2(CCO3)CC2)n1CC1CCCCC1` [17/16] are 3980 nM, 6.1 and 6.0.
On the same counts, the results for `Cc1c(C(=O)NC2CCOCC2)cc(-c2cc(C(C)(C)O)cc(C3(C)CC3)c2)n1CC1CCCCC1` [1/43] are 1000 nM, 7.1 and 7.1.
Take `Cc1c(C(=O)NCCS(N)(=O)=O)cc(-c2cc(C(C)(C)C)cc(C(C)(C)C)c2)n1CC1CCCCC1` [1/9]: the IC50 in experiment [1] is 316 nM. Further, on RORγ, the “pIC50 (FF)” value is on record as 6.5/6.6/6.7 and the “pIC50 (REN)” value is 6.5/6.6/6.7.
With `Cc1c(C(=O)N[C@H]2C[C@H](C(=O)O)C2)cc(-c2cc(C(=O)N[C@H](C)C(F)(F)F)cc(C3(C)CC3)c2)n1CC1CCCCC1` [17/359], the IC50 in experiment [1] (setting [2]) is 3160 nM. The “pIC50 (FF)” value on RORγ (setting [3]) is 7.4. In addition, the “pIC50 (REN)” value at RORγ (setting [4]) is on record as 7.4.
With `Cc1c(C(=O)NC2CCOCC2)cc(-c2ccc(S(=O)(=O)NC(C)(C)C)c3ccccc23)n1CC1CCCCC1` [17/236], in experiment [1] (setting [2]), the IC50 is 631 nM. Further, the “pIC50 (FF)” value at RORγ (setting [3]) turned out to be 8.1. Further, the “pIC50 (REN)” value on RORγ (setting [4]) came to 8.2.
In the same order, the values of `Cc1c(C(=O)NC2COC2)cc(-c2cc(C(C)(C)C)cc(C(C)(C)C)c2)n1CC1CC2CCC1C2` (stereo not drawn) [1/117] are 501 nM, 6.8 and 7.0.
Compound `Cc1c(C(=O)NCc2cocn2)cc(-c2cc(C(C)(C)C)c3c(c2)C2(CCO3)CC2)n1CC1CCCCC1` [17/18] had an IC50 in experiment [1] of 1000 nM. For the same compound, at RORγ, the “pIC50 (FF)” value was 6.0/6.1/6.1 and the “pIC50 (REN)” value is recorded as 6.0/6.1/6.1.
For the compound `Cc1c(C(=O)NC2CCOCC2)cc(-c2cc(NCC(C)(C)C)nc(C(F)(F)F)c2)n1CC1CCCCC1` [17/159], the IC50 in experiment [1] (setting [2]) is 1580 nM. At RORγ (setting [3]), the “pIC50 (FF)” value came out at 6.8. The “pIC50 (REN)” value at RORγ (setting [4]) turned out to be 6.9.
In the same order, the values of `Cc1c(C(=O)NC2CCC(C)(C(=O)O)CC2)cc(-c2ccc(S(=O)(=O)NC(C)(C)C)c(C(F)(F)F)c2)n1CC1CCCCC1` (stereo not drawn) [17/259] are 1000 nM, 7.2 and 7.2.
As for `Cc1c(C(=O)N[C@H]2C[C@H](C(=O)O)C2)cc(-c2ccc(S(=O)(=O)NC(C)(C)C)c(Cl)c2Cl)n1CC1CCCCC1` [17/277], the IC50 in experiment [1] (setting [2]) is 398 nM. For the same compound, on RORγ (setting [3]), the “pIC50 (FF)” value stood at 7.2. Besides, the “pIC50 (REN)” value against RORγ (setting [4]) is given as 7.2.
As for `Cc1c(C(=O)NCCS(C)(=O)=O)cc(-c2ccc(S(=O)(=O)NC(C)(C)C)c(C(C)(C)C)c2)n1CC1CCCCC1` [1/130], in experiment [1] (setting [2]), the IC50 was 794 nM. Also, on RORγ (setting [3]), the “pIC50 (FF)” value is given as 6.8. Besides, the “pIC50 (REN)” value against RORγ (setting [4]) is listed as 6.8.
`Cc1c(C(=O)NC2CCOCC2)cc(-c2ccc(S(=O)(=O)NC(C)(C)C)c(C#N)c2)n1CC1CCCCC1` [17/158]: in experiment [1] (setting [2]), the IC50 is 794 nM. For the same compound, the “pIC50 (FF)” value against RORγ (setting [3]) was determined as 6.1. The “pIC50 (REN)” value at RORγ (setting [4]) is listed as 6.2.
Compound `Cc1c(C(=O)NC2(C)CCOCC2)cc(-c2ccc(S(=O)(=O)NC(C)(C)C)c(C(C)(C)C)c2)n1CC1CCCCC1` [17/206] had an IC50 in experiment [1] of 631 nM. At RORγ, the “pIC50 (FF)” value is recorded as 6.2/7.0/7.2 and the “pIC50 (REN)” value was 6.2/7.0/7.2.
For `Cc1c(C(=O)NCC2COC2)cc(-c2cc(C(C)(C)C)c3c(c2)C2(CCO3)CC2)n1CC1CCCCC1` [1/100], the IC50 in experiment [1] (setting [2]) was 251 nM. In addition, the “pIC50 (FF)” value at RORγ (setting [3]) worked out at 7.2. The “pIC50 (REN)” value against RORγ (setting [4]) came out at 7.2.
Consider `Cc1c(C(=O)NC2COC2)cc(-c2cnc(NCC(C)(C)C)c(C(F)(F)F)c2)n1CC1CCCCC1` [9/12], for which, in experiment [1] (setting [2]), the IC50 was 1580 nM. Also, at RORγ (setting [3]), the “pIC50 (FF)” value stood at 6.3. Besides, the “pIC50 (REN)” value against RORγ (setting [4]) came to 6.5.
In the same order, the values of `Cc1cc(C(C)(C)C)cc(-c2cc(C(=O)NCC(C)(C)O)c(C)n2CC2CCCCC2)c1OC(F)F` [17/192] are 1580 nM, 6.5 and 6.4.
In the case of `Cc1c(C(=O)NC2CCOCC2)cc(-c2ccc(S(=O)(=O)NC(C)(C)C)c(F)c2)n1CC1CCCCC1` [17/238], the IC50 in experiment [1] (setting [2]) is 1000 nM. Moreover, the “pIC50 (FF)” value on RORγ (setting [3]) was found to be 6.9. For the same compound, the “pIC50 (REN)” value at RORγ (setting [4]) amounted to 6.7.
In the same order, the values of `Cc1c(C(=O)N[C@H]2C[C@H](C(=O)O)C2)cc(-c2cc(C(C)(C)C)c3c(c2)C2(CCO3)CC2)n1CC1CCCCC1` [17/55] are 2000 nM, 7.5 and 7.6.
For the compound `Cc1c(C(=O)NCC(C)(C)C(N)=O)cc(-c2ccc(S(=O)(=O)NC(C)(C)C)c(C(F)F)c2)n1CC1CCCCC1` [17/128], the IC50 in experiment [1] (setting [2]) was 200 nM. For the same compound, at RORγ (setting [3]), the “pIC50 (FF)” value was 8.0. Moreover, the “pIC50 (REN)” value at RORγ (setting [4]) was determined as 8.0.
For the compound `Cc1c(C(=O)NC2CCOCC2)cc(-c2ccc(S(=O)(=O)NC(C)(C)C)c3sccc23)n1CC1CCCCC1` [17/183], the IC50 in experiment [1] (setting [2]) was 200 nM. In addition, the “pIC50 (FF)” value on RORγ (setting [3]) amounted to 7.9. The “pIC50 (REN)” value against RORγ (setting [4]) came to 8.1.
On the same counts, the results for `Cc1c(C(=O)N[C@H]2C[C@H](C(=O)O)C2)cc(-c2cc(C(=O)NC(C)(C)C)cc(C(C)(C)C)c2)n1CC1CCCCC1` [17/330] are 2510 nM, 7.3 and 7.4.
The compound `Cc1c(C(=O)NC2COC2)cc(-c2cc(OCC(C)C)nc(C(C)(C)C)c2)n1CC1CCCCC1` [1/121] gave an IC50 in experiment [1] of 126 nM. At RORγ, the “pIC50 (FF)” value is 6.9/7.0/7.2 and the “pIC50 (REN)” value was 6.9/7.0/7.2.
